For assay [1], the system named is AsPC-1. Put plainly: Cell growth inhibition assay, AsPC-1 (CellTiter-Glo). It counts as cell-based. As to conditions: Homo sapiens, ASPC1, 144 h; AsPC-1 cell viability, 6 days incubation. As for the experimental part:
AsPC-1 cultured in RPMI-1640 medium (Gibco) containing 10% fetal bovine serum (Gibco). Cells in culture medium were plated in 96-well plates at a concentration of 1000 cells/well (100 μL/well) and allowed to attach overnight.
(§1) The next day, compounds were diluted in culture medium and added to the plates. After 6 days incubation in a 37° C./5% CO2 cell incubator, the cell viability was detected by CellTiter-Glo® Luminescent Cell Viability Assay kit (Promega). Luminescent signals were read on Tecan Spark multimode microplate reader and analyzed using a 4-parameter logistic model to calculate IC50 values.
(ATP-based viability assays read luminescence as a measure of living cells.)

The target of assay [2] is T1, GDP-loaded HIS-KRAS(G12D, aa 1-169) (Homo sapiens, UniProt P01116, G12D).
T1 construct: GDP-loaded HIS-KRAS(G12D, aa 1-169)
Put plainly: SOS1 catalyzed nucleotide exchange assay (TR-FRET). The format is biochemical. As to conditions: 4 hours at 25° C. How it is done: GDP-loaded HIS-KRAS(G12D, aa 1-169) was pre-incubated with a compound in the presence of 10 nM GDPin a 384-well plate (Greiner) for 15 min, then purified SOS1 ExD(Flag tag, aa 564-1049), BODIPY™ FL GTP (Invitrogen) and MAb (monoclonal antibody) Anti 6HIS-Tb cryptate Gold (Cisbio) were added to the assay wells (Final concentration: 1.5 nM GDP-loaded HIS-KRAS(G12D), 5 nM GDP, 0.5 μM SOS1 ExD, 80 nM BODIPY™ FL GTP, 52.5 ng/mL MAb Anti 6HIS-Tb cryptate Gold) and incubated for 4 hours at 25° C. Wells containing same percent of DMSO served as vehicle control, and wells without KRAS served as low control. TR-FRET signals were read on Tecan Spark multimode microplate reader. The parameters were F486: Excitation 340 nm, Emission 486 nm, Lag time 100 μs, Integration time 200 μs; F515: Excitation 340 nm, Emission 515 nm, Lag time 100 μs, Integration time 200 μs. TR-FRET ratios for each individual wells were calculated by equation: TR-FRET ratio=(Signal F515/Signal F486)*10000. The percent of activation of compounds treated wells were normalized between vehicle control and low control (% Activation=(TR-FRET ratioCompound treated−TR-FRET ratioLow control)/(TR-FRET ratioVehicle control−TR-FRET ratioLow control)*100%). Then the data were analyzed by fitting a 4-parameter logistic model or calculating in Excel to calculate IC50 values.
In general terms: Time-resolved FRET reads energy transfer from a long-lived donor to a nearby acceptor.

Assay [3] addresses T2, GppNp-loaded HIS-KRAS(G12D, aa 1-169) and cRAF RBD (Homo sapiens, UniProt P01116, G12D).
T2 construct: GppNp-loaded HIS-KRAS(G12D, aa 1-169)
The experiment in a line: GTP-KRAS and cRAF interaction assay (HTRF). It counts as biochemical. As to conditions: 2 hours at 25° C. How it is done: GppNp-loaded HIS-KRAS(G12D, aa 1-169) was pre-incubated with a compound in the presence of 200 μM GTP in a 384-well plate (Greiner) for 15 min, then cRAF RBD(GST tag, aa 50-132, CreativeBioMart), MAb Anti GST-d2 (Cisbio) and MAb Anti 6HIS-Tb cryptate Gold (Cisbio) were added to the assay wells (Final concentration: 2.0 nM GppNp-loaded HIS-KRAS(G12D), 100 μM GTP, 35 nM cRAF RBD, 1 μg/mL MAb Anti GST-d2, 52.5 ng/mL MAb Anti 6HIS-Tb cryptate Gold) and incubated for 2 hours at 25° C. Wells containing same percent of DMSO served as vehicle control, and wells without KRAS served as low control. HTRF signals were read on Tecan Spark multimode microplate reader and HTRF ratios were calculated under manufacturer's instructions. The percent of activation of compounds treated wells were normalized between vehicle control and low control (% Activation=(HTRF ratioCompound treated−HTRF ratioLow control)/(HTRF ratioVehicle control−HTRF ratioLow control)*100%). Then the data were analyzed by fitting a 4-parameter logistic model or calculating in Excel to calculate IC50 values.

For assay [4], the system named is AGS. Put plainly: Cell growth inhibition assay, AGS (CellTiter-Glo). It counts as cell-based. To be noted: Homo sapiens, 144 h; AGS cell viability, 6 days incubation. How it is done:
AGS cultured in F12K medium (Gibco) containing 10% fetal bovine serum (Gibco). Cells in culture medium were plated in 96-well plates at a concentration of 500 cells/well (100 μL/well) and allowed to attach overnight.
as §1

For assay [5], the system named is AGS cells expressing KRAS G12D. The experiment in a line: Phospho-ERK1/2(THR202/TYR204) HTRF assay. It counts as cell-based. To be noted: Homo sapiens; Phospho-ERK1/2 in AGS cells, 2 hours incubation. How it is done:
AGS cells expressing KRAS G12D were cultured in F12K medium (Gibco) containing 10% fetal bovine serum (Gibco). The AGS cells in culture medium were seeded in 96-well plates at a concentration of 40,000 cells/well and then put in a 37° C./5% CO2 cell incubator to incubate overnight. The next day, culture medium was removed and the compound diluted in assay medium (F12K, 0.1% FBS) was added in each well. After 2 hours incubation in a 37° C./5% CO2 cell incubator, the assay medium in 96-well plates was removed, then 50 μL of 1× blocking reagent-supplemented lysis buffer (Cisbio) was added and the plates were incubated at 25° C. for 45 min with shaking. 10 μL of cell lysates from the 96-well plates were transferred to a 384-well plate (Greiner) containing 2.5 μL/well HTRF® pre-mixed antibodies (Cisbio 64AERPEH). Incubate 4 hours at 25° C. and then read HTRF signals on Tecan Spark multimode microplate reader. The data were analyzed using a 4-parameter logistic model to calculate IC50 values.

What is called IC50 is the concentration that gives 50% inhibition.

T2 sequence (P01116 1-169 isoform P01116-2 G12D): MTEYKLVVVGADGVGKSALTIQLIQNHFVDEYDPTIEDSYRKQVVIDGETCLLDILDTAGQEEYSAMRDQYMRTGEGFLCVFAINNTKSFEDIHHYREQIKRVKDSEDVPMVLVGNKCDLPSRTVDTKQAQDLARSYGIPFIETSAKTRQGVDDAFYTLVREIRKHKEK
T1 sequence (P01116 1-169 isoform P01116-2 G12D): as above

For `C#Cc1cccc2cc(O)cc(-c3c(F)cc4c(N5CC6CCC(C5)N6)nc(OCC5(CN6CCOC7(CC7)C6)CC5)nc4c3F)c12` (single isomer, unassigned) [Compound 2B], the IC50 worked out at 13.5 nM in assay [1]; 1.24 nM in assay [2]; 41.3 nM in assay [3]; 0.892 nM in assay [4]; 30.3 nM in assay [5].
The like results for `C#Cc1cccc2cc(O)cc(-c3c(F)cc4c(N5CC6CCC(C5)N6)nc(OCC5(CN6CCC7(CC6)CC7(F)F)CC5)nc4c3F)c12` [Compound 3] were, in that order, 22.8 nM, 37.1 nM, 115 nM, 6.76 nM and 95.5 nM.
`C#Cc1c(F)ccc2cc(O)cc(-c3ccc4c(N5CC6CCC(C5)N6)nc(OCC5(CN6C7CCC6COC7)CC5)nc4c3F)c12` [Compound 7]: the 50% inhibitory concentration (IC50) was 72.2 nM in assay [1]; 6.27 nM in assay [2]; 27.2 nM in assay [3]; 5.66 nM in assay [4]; 3.53 nM in assay [5].
On to `C#Cc1cccc2cc(O)cc(-c3ccc4c(N5CC6CCC(C5)N6)nc(OCC5(CN6CC7CCC(C6)O7)CC5)nc4c3F)c12` [Compound 8], for which the half-maximal inhibitory concentration (IC50) in assay [1] came out at 55.3 nM; in assay [2] it was 16.8 nM; in assay [3] it was 307 nM; in assay [4] it was 31.6 nM; in assay [5], 21.2 nM.
Consider `C#Cc1cccc2cc(O)cc(-c3ccc4c(N5CC6CCC(C5)N6)nc(OCC5(CN6CC7CC6CO7)CC5)nc4c3F)c12` (stereo not shown) [Compound 9], for which the IC50 in assay [1] was determined as 138 nM; in assay [2], 7.77 nM; in assay [3], 62 nM; in assay [4], 10.5 nM; in assay [5] it was 2.59 nM.
With `C#Cc1cccc2cc(O)cc(-c3ccc4c(N5CC6CCC(C5)N6)nc(OCC5(CN6C7CCC6COC7)CC5)nc4c3F)c12` [Compound 10], the IC50 in assay [1] was found to be 57.6 nM; in assay [2], 12.1 nM; in assay [3] it was 77.3 nM; in assay [4] it was 11.1 nM; in assay [5] it was 6.18 nM.
The like results for `C#Cc1cccc2cc(O)cc(-c3c(F)cc4c(N5CC6CCC(C5)N6)nc(OCC5(CN6CCC7(CCO7)CC6)CC5)nc4c3F)c12` [Compound 11] were, in that order, 214 nM, 31.6 nM, 86.6 nM, 15.7 nM and 9.49 nM.
With `C#Cc1cccc2cc(O)cc(-c3c(F)cc4c(N5CC6CCC(C5)N6)nc(OCC5(CN6CCC7(CC6)COC7)CC5)nc4c3F)c12` [Compound 12], the IC50 in assay [1] is 83.2 nM; in assay [2], 14.2 nM; in assay [3], 80.8 nM; in assay [4] it was 3.69 nM; in assay [5] it was 1.94 nM.
Take `C#Cc1cccc2cc(O)cc(-c3c(F)cc4c(N5CC6CCC(C5)N6)nc(OCC5(CN6CCC7(C6)CC7(F)F)CC5)nc4c3F)c12` (stereo not shown) [Compound 14]: the IC50 turned out to be 26.5 nM in assay [1]; 4.36 nM in assay [2]; 79.2 nM in assay [3]; 10.7 nM in assay [4]; 182 nM in assay [5].
For `C#Cc1cccc2cc(O)cc(-c3c(F)cc4c(N5CC6CCC(C5)N6)nc(OCC5(CN6CCc7cccnc7C6)CC5)nc4c3F)c12` [Compound 15], the IC50 in assay [1] is 97.3 nM; in assay [2], 6.06 nM; in assay [3] it was 157 nM; in assay [4], 13.9 nM; in assay [5], 68.9 nM.
For `C#Cc1cccc2cc(O)cc(-c3c(F)cc4c(N5CC6CCC(C5)N6)nc(OCC5(CN6Cc7cccnc7C6)CC5)nc4c3F)c12` [Compound 17], in that order: 158 nM, 1.99 nM, 273 nM, 11.8 nM and 56.3 nM.
For `C#Cc1cccc2cc(O)cc(-c3c(F)cc4c(N5CC6CCC(C5)N6)nc(OCC5(CN6CC7(COC7)C6)CC5)nc4c3F)c12` [Compound 19], in that order: 710 nM, 2.27 nM, 66.9 nM, 12.9 nM and 19.8 nM.
In the case of `C#Cc1cccc2cc(O)cc(-c3c(F)cc4c(N5CC6CCC(C5)N6)nc(OCC5(CN6CC7(CCC7)C6)CC5)nc4c3F)c12` [Compound 20], the half-maximal inhibitory concentration (IC50) is 264 nM in assay [1]; 1.33 nM in assay [2]; 58.1 nM in assay [3]; 23.3 nM in assay [4]; 39.2 nM in assay [5].
The like results for `C#Cc1cccc2cc(O)cc(-c3c(F)cc4c(N5CC6CCC(C5)N6)nc(OCC5(CN6CC(OC)C6)CC5)nc4c3F)c12` [Compound 21] were, in that order, 334 nM, 1.94 nM, 74.5 nM, 16.3 nM and 13.5 nM.
As for `C#Cc1cccc2cc(O)cc(-c3c(F)cc4c(N5CC6CCC(C5)N6)nc(OCC5(CN6CC7(CCOCC7)C6)CC5)nc4c3F)c12` [Compound 22], the half-inhibitory concentration (IC50) worked out at 413 nM in assay [1]; 1.39 nM in assay [2]; 40.2 nM in assay [3]; 19.7 nM in assay [4]; 6.95 nM in assay [5].
As for `C#Cc1cccc2cc(O)cc(-c3c(F)cc4c(N5CC6CCC(C5)N6)nc(OCC5(CN6CC7COCC7C6)CC5)nc4c3F)c12` (stereo not shown) [Compound 24], the half-maximal inhibitory concentration (IC50) came out at 36 nM in assay [1]; 1.26 nM in assay [2]; 25.2 nM in assay [3]; 3.66 nM in assay [4]; 2.48 nM in assay [5].
Turning to `C#Cc1cccc2cc(O)cc(-c3c(F)cc4c(N5CC6CCC(C5)N6)nc(OCC5(CN6CC7CCCC7C6)CC5)nc4c3F)c12` (stereo not shown) [Compound 25], the half-maximal inhibitory concentration (IC50) in assay [1] is 96.6 nM; in assay [2] it was 1.48 nM; in assay [3], 51 nM; in assay [4], 13.2 nM; in assay [5], 14.7 nM.
Consider `C#Cc1cccc2cc(O)cc(-c3c(F)cc4c(N5CC6CCC(C5)N6)nc(OCC5(CN6CC(C)(OC)C6)CC5)nc4c3F)c12` [Compound 27], for which the IC50 in assay [1] is 533 nM; in assay [2] it was 9.61 nM; in assay [3], 190 nM; in assay [4], 29.3 nM; in assay [5] it was 19.3 nM.
As to `C#Cc1cccc2cc(O)cc(-c3c(F)cc4c(N5CC6CCC(C5)N6)nc(OCC5(CN6Cc7ccccc7C6)CC5)nc4c3F)c12` [Compound 58], the half-maximal inhibitory concentration (IC50) in assay [1] turned out to be 91 nM; in assay [2] it was 2.04 nM; in assay [3], 188 nM; in assay [4], 34 nM.

(Values after patent publication US20240025918A1, “KRAS G12D Inhibitors” (Jacobio Pharmaceuticals Co., Ltd, priority 2020, published 2024).)
